Holding throughout (assay): NCI-60 cell line screen, 48 h
The subject of test [1] is OVCAR-3 ovarian.
Test [2] concerns K-562 leukemia.
For test [3], the system named is RXF 393 renal.
Test [4] has as its system MOLT-4 leukemia.
Test [5] deals with RPMI-8226 leukemia.
Test [6] concerns HT29 colon.
Test [7] deals with M14 melanoma.
In test [8] the test system is U251 CNS.

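Each compound was tested at five concentrations against cells in 96-well plates for 48 hours. Abbreviation: GI50, concentration required for 50% inhibition of growth. TGI denotes the concentration required for complete inhibition of growth.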 A value given as a limit tells only on which side of the number the result lay.

Consider `O=c1[nH]c2ccccc2cc1C(Cl)=C(Cl)Cl`, for which the TGI in test [1], in test [2], in test [3], in test [4], in test [5] and in test [6] was above 100 µM in each case. Moreover, the TGI in test [7] and in test [8] was above 100 µM in each case.

As to `O=C1CCCN(c2ccccc2)N1`, the TGI in test [1], in test [2], in test [3], in test [4], in test [5] and in test [6] was above 100 µM each time. For the same molecule, the TGI in test [7] and in test [8] was above 100 µM throughout.

Turning to `CCOC(=O)C1(CC)CCCCC(=O)N1` (stereo unspecified), the TGI in test [1], in test [2], in test [3], in test [6], in test [7] and in test [8] was above 100 µM throughout.

For the molecule `CCOC(=O)CC1=Nc2ccccc2SC1`, the TGI in test [1], in test [3], in test [4], in test [6], in test [7] and in test [8] was above 100 µM each time.

For `Cc1ccc(-c2c(N)nc(NC#N)nc2CCC(=O)Nc2ccccc2[N+](=O)[O-])cc1`, the TGI in test [1], in test [2], in test [3], in test [4], in test [5] and in test [6] was above 100 µM in each case. For the same molecule, the TGI in test [7] and in test [8] was above 100 µM throughout.

Take `C#CCNC(=O)NC(CCCNC(=O)OCc1ccccc1)C(=O)OCc1ccccc1` (stereo unspecified): the TGI was above 100 µM in test [1]; above 100 µM in test [2]; 95.2 µM in test [3]; above 100 µM in test [4]; above 100 µM in test [5]; above 100 µM in test [6]. In addition, the TGI in test [7] is 50.6 µM; in test [8], above 100 µM.

`CCCCCCCCCCCCC(=O)OC(c1cnco1)c1nc(C(O)CC(O)C(O)C(C)O)co1` (stereo unspecified): the GI50 in test [1] is 4.61 µM; in test [2], 0.426 µM; in test [3], 0.486 µM; in test [4] it was 0.537 µM; in test [5], 0.694 µM; in test [6], 1.1 µM. Also, the values for the GI50 in test [7] and in test [8] were 0.794 µM and 0.72 µM, respectively. Besides, the TGI is above 100 µM in test [1]; above 100 µM in test [2]; 64.2 µM in test [3]; 5.14 µM in test [4]; 29.2 µM in test [5]; above 100 µM in test [6]. Also, the TGI in test [7] is above 63.8 µM; in test [8], above 62.8 µM.

As for `O=C1NC(c2ccc(O)cc2)C2CCC1C2` (stereo unspecified), the TGI in test [1], in test [2], in test [4], in test [5], in test [6] and in test [7] was above 100 µM each time. The same molecule gave a TGI in test [8] above 100 µM.

For the molecule `O=C1NC2(CCCC2)C(=O)C12CCCC2`, the TGI in test [1], in test [2], in test [3], in test [4], in test [5] and in test [6] was above 100 µM throughout. The TGI in test [7] and in test [8] was above 100 µM throughout.

Consider `CC(=O)OC1=C2CC3(C)OC(=O)CC(C)(C)C3=CC=C2C=C(C(C)C)C1=O` (stereo unspecified), for which the TGI was 2.41 µM in test [1]; above 100 µM in test [2]; 0.347 µM in test [3]; 0.756 µM in test [4]; 0.56 µM in test [5]; 2.73 µM in test [6]. Further, the TGI in test [7] was found to be 0.912 µM; in test [8] it was 2.99 µM.

With `CCOC(=O)C1=C(C)Nc2ccccc2S1`, the TGI in test [1], in test [2], in test [3], in test [4], in test [5] and in test [6] was above 100 µM throughout. Besides, the TGI in test [7] and in test [8] was above 100 µM in each case.

Consider `C=CCSC[C@H](NC(=O)COc1ccccc1)C(=O)NC(C(=O)OCc1ccc([N+](=O)[O-])cc1)=C(C)C`, for which the TGI was above 100 µM in test [1]; above 100 µM in test [2]; above 100 µM in test [3]; 88.1 µM in test [4]; above 100 µM in test [5]; above 100 µM in test [6]. Besides, the TGI in test [7] and in test [8] was above 100 µM each time.

As for `COC(=O)C(C#N)=C1c2ccccc2Oc2ccccc21`, the TGI is 73.1 µM in test [1]; above 100 µM in test [2]; above 100 µM in test [3]; above 100 µM in test [4]; 49.3 µM in test [5]; above 100 µM in test [6]. Also, the TGI in test [7] is above 100 µM.

Take `FC(F)(F)c1nc(-c2ccccc2Cl)[nH]c1C(F)(F)F`: the TGI in test [1] was 3.68 µM; in test [2] it was 4.29 µM; in test [3], 2.69 µM; in test [4] it was above 29.5 µM; in test [5], 25.2 µM; in test [6] it was 4.22 µM. For the same molecule, the TGI in test [7] is 4.83 µM; in test [8], 3.08 µM.

Consider `C1COCCN1.C1COCCN1.N.N.[Cl-].[Pt+2]`, for which the GI50 in test [1], in test [3], in test [7] and in test [8] was above 100 µM in each case. Also, the TGI in test [1], in test [3], in test [7] and in test [8] was above 100 µM in each case.

For the molecule `CC(=O)[CH-]C(=O)c1ccccc1.CC(=O)[CH-]C(=O)c1ccccc1.CCCCCCCCCCCCCCCCCC(=O)[O-].CCCCCCCCCCCCCCCCCC(=O)[O-].[Ti+4]`, the GI50 is 18.9 µM in test [1]; 22.3 µM in test [2]; 19.7 µM in test [3]; 21.7 µM in test [4]; 21.6 µM in test [5]; 20.8 µM in test [6]. Further, the results for the GI50 in test [7] and in test [8] were 17.4 µM and 20.3 µM, respectively. Besides, the TGI in test [1] was found to be 38 µM; in test [2], 62.1 µM; in test [3] it was 33.9 µM; in test [4], 62 µM; in test [5] it was 55.4 µM; in test [6], 44.9 µM. The TGI in test [7] is 31.9 µM; in test [8], 41.4 µM.

Regarding `CSC1=NC=CCN1C`, the TGI in test [1], in test [2], in test [4], in test [5], in test [6] and in test [7] was above 100 µM throughout. The molecule also showed a TGI in test [8] above 100 µM.

Take `COc1cc2c(c3c1C=CCO3)C(=O)c1ccccc1C2=O`: the TGI was above 100 µM in test [1]; above 100 µM in test [2]; above 100 µM in test [3]; 79.2 µM in test [4]; above 100 µM in test [5]; above 100 µM in test [6]. Further, the TGI in test [7] and in test [8] was above 100 µM each time.

As to `Cn1cc(NC(=O)c2cc(NC(=O)CCCCCCCCCCC(=O)Nc3cc(C(=O)Nc4cc(C(=O)NCCC(=N)N)n(C)c4)n(C)c3)cn2C)cc1C(=O)NCCC(=N)N`, the TGI in test [1] was above 100 µM; in test [2], above 100 µM; in test [3], 77.5 µM; in test [4], above 100 µM; in test [6], above 100 µM; in test [7], above 100 µM. This molecule came in with a TGI in test [8] above 100 µM.

Regarding `O=C(C#Cc1c[nH]c(=O)[nH]c1=O)c1ccccc1Cl`, the TGI in test [1] was 27.3 µM; in test [2], above 100 µM; in test [3] it was 14.7 µM; in test [4], 44.3 µM; in test [5], 71.7 µM; in test [6], 96.9 µM. In addition, the TGI was determined as 28.8 µM in test [7] and 35.1 µM in test [8].

Consider `COC1O[C@H]2CCN(C(=O)OCc3ccccc3)[C@H]2[C@H]1OCc1ccccc1` (stereo partly specified), for which the TGI in test [1], in test [2], in test [3], in test [4], in test [5] and in test [6] was above 100 µM in each case. In addition, the TGI in test [7] and in test [8] was above 100 µM each time.

For the molecule `Cc1cc2c(cc1C)[n+](=O)c(C(=O)C/C(=N/NC(=O)c1ccccc1O)C(=O)Nc1ccccc1C(C)C)c(C)n2[O-]`, the TGI was above 100 µM in test [1]; above 100 µM in test [2]; above 100 µM in test [3]; 77.1 µM in test [4]; above 100 µM in test [6]; above 100 µM in test [7]. The molecule also had a TGI in test [8] above 100 µM.

For `O=[N+]([O-])[C@@H]1C2C=CC(C2)[C@H]1Cl` (stereo partly specified), the TGI in test [1], in test [2], in test [3], in test [4], in test [5] and in test [6] was above 100 µM each time. For the same molecule, the TGI in test [7] and in test [8] was above 100 µM each time.

As for `Cc1ccccc1C(C#N)C(=O)C(=O)Nc1nc([N+](=O)[O-])cs1` (stereo unspecified), the TGI in test [1], in test [3], in test [6], in test [7] and in test [8] was above 100 µM in each case.
